Patent US5232933A, “Method for treatment of neurodegenerative diseases” (R. J. Reynolds Tobacco Company, priority 1992, dated 1993)

Biological target: high affinity nicotinic receptors
Test: Inhibition of L-[3H]nicotine binding to mouse brain membranes
Set-up: species or system Mice (DBA strain)
Conditions: 2 hr incubation at 4° C., Ki calculated from IC50 by method of Cheng
Protocol: Mice (DBA strain) were maintained on a 12 hour light/dark cycle and were allowed free access to water and food supplied by Wayne Lab Blox, Madison, Wis. Animals used in the present studies were 60 to 90 days of age and weighed 20 to 25 g. Brain membrane preparations were obtained from pooled brain tissue of both males and females.
Mice were killed by cervical dislocation. Brains were removed and placed on an ice-cold platform. […] Protein was determined by the method of Lowry, et al., J. Biol. Chem., Vol. 193, pp. 265-275 (1951), using bovine serum albumin as the standard.
The binding of L-[^3 H]nicotine was measured using a modification of the method of Romano, et al., Science, Vol 210 pp. 647-650 (1980) as described previously by Marks, et al., Mol. Pharmacol., Vol. 30, pp. 427-436 (1986). The binding of L-[^3 H]nicotine was measured using a 2 hr. incubation at 4° C. […] Nonspecific binding was determined by inclusion of 10 μM nonradioactive nicotine in the incubations. The inhibition of L-[^3 H]nicotine binding by test compounds was determined by including one of eight different concentrations of the test compound in the incubation. […] Inhibition constant (Ki values) were calculated from the IC50 values using the method of Cheng, et al., Biochem. Pharmacol., Vol. 22, pp. 3099-3108 (1973). […]

`c1ccc(C2CCCN2)nc1` (racemic) [alpha-nornicotine] was tested, and the Ki was 5.7 µM.
